Laboratory results taken from patent US10214515B2, “Substituted pyrazoles as inhibitors of fibroblast growth factor receptor” (Zhejiang Hisun Pharmaceutical Co., Ltd., priority 2015, dated 2019).
Like-named read-outs stand apart in the source and are kept apart here.

Experiments:
FGFR4 = FGFR4 (Homo sapiens (Human), UniProt P22455); settings: read-out: IC50(nM) FGFR4; recombinant human FGFR4, ATP at Km
Description: This assay used Cisbio's HTRF®KinEASE-TK tyrosine kinase kit (Cat. No. 62TK0PEB), through determining the degree of phosphorylation of the biotinylated polypeptide substrate, the determination was carried out by time-resolved fluorescence energy resonance transfer method (TF-FRET).
For detailed assay, please refer to the kit instructions, the experimental procedure was summarized as follows: the compound of the present invention was first dissolved in DMSO, the solution was subjected to gradient dilution with the buffer solution provided in the kit so that the range of the final concentration of the compound to be tested in the reaction system was 10 μM to 0.1 nM, the final concentration of DMSO was 0.1%. The concentration of the tested adenosine triphosphate (ATP) was the pre-determined Km value corresponding to the ATP of each FGFR subtype. […] Subsequently, an antiphosphorylated tyrosine antibody coupled with a compound containing europium-based element and streptavidin coupled with a modified allophycocyanin XL665 were added to the reaction and the mixture was incubated continuously for 1 hour at room temperature.

FGFR3 = FGFR3 (Homo sapiens (Human), UniProt P22607); assay: FGFR kinase activity, HTRF KinEASE-TK (TF-FRET); format: biochemical; settings: recombinant human FGFR3, ATP at Km
[1] = system: small cell lung cancer cells DMS114; assay: Tumor cell proliferation, CCK-8 kit; format: cell-based; settings: Homo sapiens, DMS-114, 72 hours
[2] = system: human bladder transplanted cell carcinoma cell SW780; assay: cells; settings: SW780, 72 h, read-out: IC50(nM)/SW780
Excerpt: For the FGFR3 subtype, the human bladder transplanted cell carcinoma cell SW780 (purchased from the Chinese Academy of Sciences, Shanghai Institute of Life Sciences, Cell Resource Center) was used, and cultivated according to the corresponding conditions.
The experimental assay can be briefly described as follows: the tested compound was first dissolved in DMSO to prepare a stock solution, then it was subjected to gradient dilution with corresponding cell culture medium to prepare a test sample. The final concentration of the compound is in the range of 30 μM to 0.01 nM. The tumor cells in logarithmic growth phase were inoculated into 96-well cell culture plates at appropriate densities, after the cells were incubated overnight under the corresponding conditions, the tested compound samples were added and the cells were cultured for 72 hours. After completion of the culture, a suitable volume of CCK-8 test solution was added to each well and the cells were incubated at 37° C. for 1 to 4 hours. […] The percentage inhibition rate of the compound at each concentration point was calculated by comparing with the absorbance values of the control group, and then non-linear regression analysis was carried out using logarithmic concentration of the compounds-inhibition rates in the GraphPad Prism 5 software, to obtain the IC50 values for inhibiting cell proliferation of the compounds.

[3] = system: small cell lung cancer cells NCI-H1581; assay: Tumor cell proliferation, CCK-8 kit; format: cell-based; settings: Homo sapiens, 72 hours
[4] = system: human gastric cancer cells KATOIII; assay: Tumor cell proliferation, CCK-8 kit; format: cell-based; settings: KATO III, 72 hours
[5] = Pharmacokinetic tests on rats, intragastric, plasma LC/MS/MS; format: in vivo; settings: SD rats; for AUC(0-inf) / half-life / Cmax / MRT: male, rat, plasma, po; for AUC(0-inf): read-out: Curve area AUC0-∞; for half-life: read-out: Half-life period T½ (converted); for Cmax: read-out: Plasma concentration Cmax; for MRT: read-out: Residence time MRT
Description: SD rats were used as the test animals, and the compounds of Examples 12 and 17 were administrated intragastrically to the rats to determine the drug concentration in plasma at different points by LC/MS/MS method. The pharmacokinetic properties of the compounds of the present invention in rats were studied.
The compound of Example 12 (3.5 mg) was weighed, dissolved in 2.2 mL of ethanol, vortexed for 1 minute and sonicated for 1 minute, after that, dissolved in 3.3 mL of PEG400, vortexed for 1 minute and sonicated for 1 minute, and then added with 5.5 mL of deionized water, vortexed for 1 minute. The final concentration of the solution was 0.3 mg/mL, and it was a colorless clear liquid (the pH of the final solution was about 7).
The compound of Example 17 (7.12 mg) was weighed and 7.12 mL of 0.5% sodium carboxymethylcellulose (CMC-Na) (0.5% Tween-20, 0.9% BeOH) was added, vortexed for 3 minutes until a homogeneous suspension was formed;
6 healthy adult SD male rats, after an overnight fast, were administrated intragastrically at the dosage of 3 mg/kg and 5 mg/kg, respectively.
Blood samples were taken from laryngeal vein (0.15 mL), at pre administration and at 15 minutes, 30 minutes, 1 hour, 2 hours, 4 hours, 8 hours, 12 hours, 24 hours, 36 hours and 48 hours post administration, and the samples were stored in heparinized test tubes, and centrifuged for 10 minutes at 5500 r/min. The plasma was stored at −30° C., and the rats were fed 4 hours after administration.
20 μL of sample was taken, 400 μl of acetonitrile solution of IS (5 ng·mL^−1 verapamil and 50 ng·mL^−1 glibenclamide were contained) was added, The mixture was vortexed for 1 minute, and then centrifuged for 8 minutes at 13,000r/min. After that, 70 μL of supernatant was added with 70 μL of water and vortexed for 10 minutes, and an aliquot of 10 μL of the supernatant of the mixture was analyzed in a LC-MS/MS system.
The tested compounds were administrated intragastrically to determine the content of the tested compounds in plasma of rats at different time points by LC-MS/MS method.

[6] = system: human gastric cancer cells SNU-16; assay: Tumor cell proliferation, CCK-8 kit; format: cell-based; settings: SNU-16 cells, 72 hours
[7] = Pharmacokinetic tests on mice, intragastric, plasma LC/MS/MS; format: in vivo; settings: ICR mice, 100 mg/kg
Description: ICR mice were used as the test animals, and the compound of Example 1 was administrated intragastrically to mice to determine the drug concentration in plasma at different points by LC/MS/MS method. The pharmacokinetic properties of the compound of the present invention were studied in mice.
The compound of Example 1 (50.12 mg) was weighed, added with 5.012 mL of 0.5% sodium carboxymethylcellulose (CMC-Na) (0.5% Tween-20, 0.9% BeOH), vortexed for 3 minutes until a homogeneous suspension was formed;
9 healthy adult ICR mice, after an overnight fast, were administrated intragastrically at a dosage of 100 mg/kg, at a volume of […].
Blood samples were taken from orbital vein (0.08 mL) at pre administration and at 15 minutes, 30 minutes, 1 hour, 2 hours, 4 hours, 8 hours, 12 hours, 24 hours post administration. The samples were stored in heparinized test tubes and centrifuged for 10 minutes at 5500r/min, The plasma were stored at −30° C., and the mice were fed after 4 hours of administration.
10 μL of sample was taken, 100 μl of acetonitrile solution of IS (5 ng·mL^−1 verapamil and 50 ng·mL^−1 glibenclamide were contained) was added, the mixture was vortexed for 10 minutes and centrifuged for 18 minutes at 3,700r/min, After that, 40 μL of supernatant was added with 120 μL of water and vortexed for 10 minutes, and an aliquot of 10 μL of the supernatant of the mixture was analyzed in a LC-MS/MS system.
The tested compounds were administrated intragastrically to determine the content of the tested compounds in plasma of mice at different time points by LC-MS/MS method.

FGFR3, sequence (P22607 23-806): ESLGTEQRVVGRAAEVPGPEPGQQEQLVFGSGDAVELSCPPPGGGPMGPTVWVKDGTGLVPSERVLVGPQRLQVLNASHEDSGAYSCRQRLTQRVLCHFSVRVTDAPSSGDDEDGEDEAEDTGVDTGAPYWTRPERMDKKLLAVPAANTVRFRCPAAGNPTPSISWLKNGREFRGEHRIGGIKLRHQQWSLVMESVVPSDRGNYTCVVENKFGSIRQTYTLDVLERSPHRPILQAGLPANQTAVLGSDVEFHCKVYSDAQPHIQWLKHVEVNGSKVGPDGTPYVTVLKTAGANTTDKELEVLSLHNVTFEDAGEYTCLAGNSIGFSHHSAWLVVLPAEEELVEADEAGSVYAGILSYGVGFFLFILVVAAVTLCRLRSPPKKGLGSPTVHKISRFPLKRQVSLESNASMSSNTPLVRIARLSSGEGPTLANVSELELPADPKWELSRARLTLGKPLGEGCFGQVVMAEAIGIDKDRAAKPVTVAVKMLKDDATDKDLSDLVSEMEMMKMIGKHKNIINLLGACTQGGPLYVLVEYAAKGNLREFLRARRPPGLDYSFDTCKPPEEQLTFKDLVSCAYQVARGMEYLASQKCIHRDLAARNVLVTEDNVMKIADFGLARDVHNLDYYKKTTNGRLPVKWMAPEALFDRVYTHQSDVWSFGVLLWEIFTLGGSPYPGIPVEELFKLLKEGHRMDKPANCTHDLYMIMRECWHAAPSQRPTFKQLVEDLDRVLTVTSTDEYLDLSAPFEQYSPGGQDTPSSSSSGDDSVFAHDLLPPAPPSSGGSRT
FGFR4, sequence (P22455 22-802): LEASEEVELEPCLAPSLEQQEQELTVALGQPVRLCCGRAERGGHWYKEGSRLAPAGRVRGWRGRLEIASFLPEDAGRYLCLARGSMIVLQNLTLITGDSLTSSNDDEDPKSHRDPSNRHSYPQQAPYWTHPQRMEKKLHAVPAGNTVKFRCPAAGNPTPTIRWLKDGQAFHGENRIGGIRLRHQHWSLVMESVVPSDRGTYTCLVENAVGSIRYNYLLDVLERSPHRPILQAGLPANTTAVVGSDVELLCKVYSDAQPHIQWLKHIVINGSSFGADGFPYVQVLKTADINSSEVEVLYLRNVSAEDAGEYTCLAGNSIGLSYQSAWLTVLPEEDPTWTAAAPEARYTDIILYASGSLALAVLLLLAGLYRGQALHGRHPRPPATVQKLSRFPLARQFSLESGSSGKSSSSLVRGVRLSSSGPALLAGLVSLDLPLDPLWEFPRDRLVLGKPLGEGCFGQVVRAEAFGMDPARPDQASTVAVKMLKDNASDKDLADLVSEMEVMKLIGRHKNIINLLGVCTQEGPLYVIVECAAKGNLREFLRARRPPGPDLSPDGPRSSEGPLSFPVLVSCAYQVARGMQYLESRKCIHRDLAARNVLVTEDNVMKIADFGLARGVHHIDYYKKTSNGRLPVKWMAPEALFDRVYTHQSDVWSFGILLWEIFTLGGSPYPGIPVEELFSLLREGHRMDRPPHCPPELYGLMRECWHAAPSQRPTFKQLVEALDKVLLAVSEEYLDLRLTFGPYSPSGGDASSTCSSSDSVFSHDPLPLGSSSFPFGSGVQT

With `COC(=O)c1nc2cc(-n3ncc(C(=O)c4cc5ccccc5[nH]4)c3N)ccc2[nH]1` [Example 7, Methyl 5-(5-amino-4-(1H-indole-2-carbonyl)-1H-pyrazol-1-yl)-1H-benzo[d]imidazole-2-carboxylate] the IC50 (FGFR4) was > 10000 nM and the IC50 (FGFR3) was > 100 nM.

With `CCn1cc(-c2ccc3cc(C(=O)c4cnn(-c5ccc6[nH]c(C7CC7)nc6c5)c4N)[nH]c3c2)cn1` [Example 16, (5-Amino-1-(2-cyclopropyl-1H-benzo[d]imidazol-5-yl)-1H-pyrazol-4-yl)(6-(1-ethyl-1H-pyrazol-4-yl)-1H-indol-2-yl)methanone] the IC50 [1] was 56 nM, the IC50 [2] was 56 nM and the IC50 [3] was 40 nM. The IC50 [4] was 11 nM.

With `N#Cc1ccc2cc(C(=O)c3cnn(-c4ccc5[nH]c(C6CC6)nc5c4)c3N)[nH]c2c1` [Example 17, 2-(5-Amino-1-(2-cyclopropyl-1H-benzo[d]imidazol-5-yl)-1H-pyrazole-4-carbonyl)-1H-indole-6-carbonitrile] the IC50 [1] was 129 nM, the “pharmacokinetic properties (in words)” value [5] was “good pharmacokinetic properties” and the AUC(0-inf) ([5]; 5 mg/kg) was 10.3 ± 3.49 µg·h/mL. It also gave a half-life ([5]; 5 mg/kg) of 6.6 ± 3.2 h, a Cmax ([5]; 5 mg/kg) of 1.04 ± 0.271 µg/mL and an MRT ([5]; 5 mg/kg) of 9.4 ± 5.2 h. It also gave an IC50 [2] of 106 nM, an IC50 [3] of 61 nM and an IC50 [4] of 9.8 nM.

In the case of `Nc1c(C(=O)c2cc3ccc(F)cc3[nH]2)cnn1-c1ccc2[nH]c(C3CC3)nc2c1` [Example 12, (5-Amino-1-(2-cyclopropyl-1H-benzo[d]imidazol-5-yl)-1H-pyrazol-4-yl)(6-fluoro-1H-indol-2-yl)methanone], the IC50 [1] is reported as 150 nM, the “pharmacokinetic properties (in words)” value [5] is reported as “good pharmacokinetic properties” and the AUC(0-inf) ([5]; 3 mg/kg) is reported as 80.4 ± 24.6 µg·h/mL. It also gave a half-life ([5]; 3 mg/kg) of 5.38 ± 0.05 h, a Cmax ([5]; 3 mg/kg) of 5.23 ± 1.51 µg/mL and an MRT ([5]; 3 mg/kg) of 8.18 ± 0.19 h. For the same compound, the IC50 [3] was 78 nM, the IC50 [4] was 1.1 nM and the IC50 [6] was 5 nM.

With `Nc1c(C(=O)c2cc3cc(F)ccc3[nH]2)cnn1-c1ccc2[nH]c(C3CC3)nc2c1` [Example 11, (5-amino-1-(2-cyclopropyl-1H-benzo[d]imidazol-5-yl)-1H-pyrazol-4-yl)(5-fluoro-1H-indol-2-yl)methanone] the IC50 [3] was 119 nM and the IC50 [4] was 15 nM.

For `CN1CC=C(c2ccc3cc(C(=O)c4cnn(-c5ccc6[nH]c(C7CC7)nc6c5)c4N)[nH]c3c2)CC1` [Example 14, (5-Amino-1-(2-cyclopropyl-1H-benzo[d]imidazol-5-yl)-1H-pyrazol-4-yl)(6-(1-methyl-1,2,3,6-tetrahydropyrid-4-yl)-1H-indol-2-yl)methanone], the IC50 [1] was 43 nM, the IC50 [3] was 20 nM and the IC50 [4] was 4.5 nM. For the same compound, the IC50 [6] was 5.6 nM.

With `Nc1c(C(=O)c2cc3ccccc3[nH]2)cnn1-c1ccc2[nH]c(C3CC3)nc2c1` [Example 1, (5-amino-1-(2-cyclopropyl-1H-benzo[d]imidazol-5-yl)-1H-pyrazol-4-yl)(1H-indol-2-yl)methanone] the IC50 [1] was 89 nM, the IC50 [2] was 11 nM and the “F % (oral availability)” value [7] was 63%. The “pharmacokinetic properties (in words)” value [7] was “good pharmacokinetic properties”, the AUC(0-t) ([7]; mouse, plasma, po, read-out: Curve area AUC0-t) was 150 µg·h/mL and the Cmax ([7]; mouse, plasma, po, read-out: Plasma concentration Cmax) was 17.4 µg/mL. It also gave an IC50 [3] of 45 nM, an IC50 [4] of 9 nM and an IC50 [6] of 4 nM.
